Data from patent publication US20080234243A1, “METHOD OF TREATING AMYLOIDOSIS MEDIATED DISEASES” (priority 2007, published 2008).

Tested on: soluble Aβ (1-40) peptide
Experiment: In vivo effect on soluble Aβ (1-40) in whole brain homogenates of CB.17 SCID mice (ELISA)
Details: CB17 SCID mice, oral, 300 mg/kg/day for 20 days, brain extracts; P=0.012 vs. control
Experimental: FIG. 1 provides a graph showing a decrease in soluble AD levels in CB17 SCID mice treated with 2ME2. Mice (5 animals per group) were treated orally for 5 or 20 days with 300 mg/kg/day 2ME2, and soluble Aβ levels were measure in whole brain homogenates. (*P=0.012 vs. control)
CB. 17 SCID mice were treated orally for 5 or 20 days with 300 mg/kg/day 2ME2. At the end of treatment mice were humanely euthanized, and mouse brain was recovered surgically. This tissue was immediately frozen on dry ice until processing for ELISA analysis of soluble Aβ peptide. Serum is also routinely collected for later analysis as well.
Preparation of the Brain Extract Solution
1. Homogenize brains into 15 vol of ice cold TBS, pH 7.4 containing leupeptide (10 ug/ml) and aprotinin (20 ug/ml).
2. Transfer to microcentrifuge tubes and spin 20,000 g for 20 min at 4° C.
3. Remove supernatant (TBS Extract) to ice.
4. Wash once with cold TBS and resuspend in 15 vol of TBS/1% Triton X-100 and protease inhibitors. Incubate 30 min at 4° C. with agitation.
5. Transfer to microcentrifuge tubes and spin 20,000 g for 20 min at 4° C.
6. Remove supernatant (Triton Extract) to ice. […]
Harvested brains were homogenized with a tissue homogenizer, and subjected to serial extraction with TBS followed by TBS/Triton X-100. […] Brains were harvested, and soluble Aβ was assessed. […]

COc1cc2c(cc1O)CC[C@@H]1[C@@H]2CC[C@]2(C)[C@@H](O)CC[C@@H]12 [2ME2, 2-methoxyestradiol]
decrease in the levels of soluble Aβ (inhibition): 46%
